Measured values from patent US20230160021A1, “METHOD FOR THE DETECTION OF A SEXUALLY TRANSMITTED INFECTIOUS PATHOGEN” (SELFDIAGNOSTICS DEUTSCHLAND GMBH, priority 2016, published 2023).

Key:
LAMP reaction = test: LAMP amplification activity in the presence of lytic agents / lytic peptides; assay type: biochemical; conditions: for inhibiting effect on the LAMP amplification efficiency: 5 μM antimicrobial peptide in LAMP reaction
Procedure: Loop-mediated isothermal amplification activity in the presence of different lytic agents. Percentage of amplification activity in the presence of 0.1% polyethylene glycol p-(1,1,3,3-tetramethylbutyl)-phenyl ether, 0.1 mg/ml lysozyme (with or without 0.1% polyethylene glycol p-(1,1,3,3-tetramethylbutyl)-phenyl ether or 1 mM EDTA) or alkaline lysis components.
Loop-mediated isothermal amplification activity in the presence of different lytic peptides. Percentage of amplification activity in the presence of 5 μM antimicrobial peptides.

E. coli = test: Loop-mediated isothermal amplification directly from E. coli cell lysates after pretreatment of urine spiked E. coli; assay type: cell-based, Escherichia coli
Procedure: Loop-mediated isothermal amplification directly from E. coli cell lysates. Isothermal amplification after pretreatment of urine spiked E. coli with different lysate preparation techniques. Lysozyme was used at 1 mg/ml concentration, polyethylene glycol p-(1,1,3,3-tetramethylbutyl)-phenyl ether at 1% and peptides at 50 μM concentration for the biological sample treatment. All sample pretreatments were performed for 5 min at RT° C. (except for heat treatment that was incubated at 95° C.).
A biological sample containing E. coli bacteria (urine sample in FIG. 6) is treated with 50 μM antimicrobial peptide belonging to but not limited to cecropin group (Cecropin P1 or SB-37 in FIG. 6) for 5 min at RT° C. 5 μl of the urine sample is added directly to the loop-mediated amplification reaction, so that final reaction volume is 50 μl and final components concentration as follows: 0.2 μM F3 primer, 0.2 μM B3 primer, 1.6 μM BIP primer, 1.6 μM FIP primer, 0.8 μM LF primer, 0.8 μM LB primer, 8 mM MgSO4, 1.4 mM dNTP, 0.8M betain, 20 mM Tris-HCl pH 8.8, 10 mM KCl, 10 mM (NH4)2SO4, 0.1% (v/v) Tween 20 and 16 units of Bsm polymerase.

Row | Compound | inhibiting effect on the LAMP amplification efficiency (LAMP reaction) | also measured
1 | CC[C@H](C)[C@H](NC(=O)CN)C(=O)NCC(=O)N[C@@H](C)C(=O)N[C@H](C(=O)N[C@@H](CC(C)C)C(=O)N[C@@H](CCCCN)C(=O)N[C@H](C(=O)N[C@@H](CC(C)C)C(=O)N[C@H](C(=O)N[C@H](C(=O)NCC(=O)N[C@@H](CC(C)C)C(=O)N1CCC[C@H]1C(=O)N[C@@H](C)C(=O)N[C@@H](CC(C)C)C(=O)N[C@H](C(=O)N[C@@H](CO)C(=O)N[C@@H](Cc1c[nH]c2ccccc12)C(=O)N[C@H](C(=O)N[C@@H](CCCCN)C(=O)N[C@@H](CCCNC(=N)N)C(=O)N[C@@H](CCCCN)C(=O)N[C@@H](CCCNC(=N)N)C(=O)N[C@@H](CCC(N)=O)C(=O)N[C@@H](CCC(N)=O)C(N)=O)[C@@H](C)CC)[C@@H](C)CC)[C@@H](C)O)[C@@H](C)O)C(C)C)C(C)C [melittin] | inhibiting effect comparable to alkaline lysis components | 
2 | Bombolitin III | only mild inhibition | 
3 | Cecropin P1 (SWLSKTAKKLENSAKKRISEGIAIAIQGGPR; listed as Ascaris suum) | lowest inhibitory effect | increase of the target DNA available for the isothermal amplification (E. coli; 50 μM peptide, 5 min at RT, urine spiked E. coli, LAMP (FIG. 6)): 6 times; effect of sample pre-treatment on isothermal amplification efficiency (E. coli; urine sample, peptide pre-treatment (FIG. 6)): enhancing effect; inhibiting effect on the LAMP amplification efficiency (LAMP reaction; listed as P1): only mild inhibition
4 | MSI-78 | quite severe inhibiting effect | 
5 | MSI-594 | quite severe inhibiting effect | 
6 | lysozyme |  | effect on the amplification efficiency (LAMP reaction; lysozyme alone, 0.1 mg/ml in LAMP reaction): very modest effect; isothermal amplification efficiency (LAMP reaction; lysozyme in combination with lysis enhancing agents (polyethylene glycol p-(1,1,3,3-tetramethylbutyl)-phenyl ether or EDTA)): significantly reduced
